Results reported in EP0519427A2, “N-substituted-3-iodopropiolamide, production and use thereof” (priority 1991, dated 1992).

Tested on: Aspergillus Niger (IFO 6341), Penicillium funiculosum (IFO 6345), Rhizopus javanicus (IFO 6354), Aureobasidium pullulans (IFO 6353), Gliocladium virens (IFO …)
Experiment: Fungicide activity for wood fungicide, sum of average ratings and damage value over the five fungi
Format: cell-based
Details: for damage value: D = S₁ / S₀ × 100, untreated 100.0, lower = higher fungicide activity; for Sum (of average rating values A₁ to A₅): S = A₁ + A₂ + A₃ + A₄ + A₅, untreated 15.0; for wood fungicide activity (statement in words): summary of Table 3
Description: This test was conducted according to Specification No.2 of Japan Wood Preserving Association, enacted in 1979 and titled "Test methods of fungicide activity for wood fungicide".
• ① Aspergillus niger van Tieghem IFO 6341 = ATCC 6275 • ② Penicillium funiculosum Thom (formerly : Penicillium luteum Zukal) IFO 6345 = ATCC 9644 • ③ Rhizopus javanicus Takeda (formerly : Rhizopus nigricans Ehrenberg S.N. 32) IFO 6354 • ④ Aureobasidium pullulans (de Bary) Arnaud IFO 6353 = IAM (H. Iizuka, F-24) • ⑤ Gliocladium virens Miller, Gidden & Fosteb IFO 6355 = ATCC 9645 (formerly : Trichoderma viride, T.I.)
The fungi ① , ② , ③ and ⑤ are classified as fungi imperfecti, and the fungus ④ as blue stain fungus.
The Culture medium comprised the potato-sap agar culture medium (specified in the Japan Industrial Standard (JIS) Z 2911- 1960) of 50 ml, put in the conical flask of 100 ml, sterilized by steam at 1.4-1.6 kgf/cm² .G (137.2-156.8 KPa) for 30 minutes.
The fungi to be used were inoculated into the culture medium specified in the previous section and were cultured at 26 ± 2 °C under the relative humidity of 70-80 % for two weeks.
The potato sap of 50 ml, sterilized, cooled to room temperature and to which dioctyl sodium sulfosuccinate, a wetting agent, was added so as to become 0.005 %, was dropped to the fully breeding fungi layer, and was agitated with a platinum spatula in such a way that the spore was torn off. The resulting liquid filtered by sterilized gauze was the spore suspension.
3-5-1 A Petri dish measured 90-100 mm in diameter and 20 mm in height.
3-5-2 Agar liquid (which has no nutrients) of 2 % sterilized by steam was dropped onto the Petri dish sterilized by dry heat, and then was solidified.
3-5-3 Three mm diameter sterilized glass bars or plastic nets made of polypropylene, etc. were placed to prevent the test specimens from touching with agar directly.
3-6-1 The type of trees for wood specimens was beech. The cross section was of grain face, and the dimension was 20 mm wide 3 mm thick and 50 mm long.
3-6-2 Wood specimens were supplied with nutrients in such a way that they were dipped into the potato-sap (the one in the section 3-2, but agar was not added) for 3 minutes.
3-6-3 Nutrient-supplied wood specimens, after drying at 60 °C, were used for testing immediately. They were temporarily stored at 0 °C, but they were served to tests as soon as possible.
The test specimens were of two types, treated and untreated speciments. The treated specimens referred to the one treated with fungicide. The untreated specimens were of two types, the one really untreated and the other treated with solvent only.
3-7-2-1 Nutrients-supplied wood specimens were dried at 60 ± 2 °C, and then their weights (W₀) were measured. Test specimens of 10-20 pieces were piled up in a one liter beaker in such a way that two specimens constant space apart from each other were alternately put on the other two specimens also constant space apart from each other. On the top of the two specimens, a weight was placed. Through the test specimens thus arranged, the fungicide solution was introduced. The level of the fungicide solution was one centimeter above the top specimens. The test specimens were dipped for three minutes after the fungicide solution introduction.
After finishing dipping, the test specimens were wiped softly, and then the weights (W₁) were measured immediately. As control experiment, the same procedure as the above was done using solvent without fungicide.
3-7-2-2 The amounts of solution pick-up and fungicide pick-up were calculated with the following equations: The amount of solution absorption: RL = W₁ - W₀ [formula] The amount of fungicide absorption: Rc = RL × fungicide concentration [formula] 3-7-2-3 Wood specimens treated were placed without contacting each other, then were air-dried for two days, and then served as the treated test specimens. […]

SMILES | damage value | Sum (of average rating values A₁ to A₅) | wood fungicide activity (statement in words)
CCCCCNC(=O)C#CI [Example 7, N-(n-Pentyl)-3-iodopropiolamide] | 34.4 | 5.2 | –
CCCCCCNC(=O)C#CI [Example 8, N-(n-Hexyl)-3-iodopropiolamide] | 23.3 | 3.5 | excellent wood fungicide activity
CCCCCCCCCCNC(=O)C#CI [Example 2, N-(n-Decyl)-3-iodopropiolamide] | 62.2 | 9.3 | –
CC(C)CNC(=O)C#CI [Example 6, N-Isobutyl-3-iodopropiolamide] | 20.2 | 3.0 | excellent wood fungicide activity
CC(C)(C)NC(=O)C#CI [Example 1, N-(tert-Butyl)-3-iodopropiolamide] | 13.3 | 2.0 | excellent wood fungicide activity
CCCCCCCCNC(=O)C#CI [Example 10, N-(n-Octyl)-3-iodopropiolamide] | 54.4 | 8.2 | –
CCC(C)NC(=O)C#CI (stereo not shown) [Example 5, N-(sec-Butyl)-3-iodopropiolamide] | 28.9 | 4.3 | excellent wood fungicide activity
CCCCNC(=O)C#CI [Example 4, N-(n-Butyl)-3-iodopropiolamide] | 6.7 | 1.0 | excellent wood fungicide activity
CCCCCCCNC(=O)C#CI [Example 9, N-(n-Heptyl)-3-iodopropiolamide] | 50.0 | 7.5 | –
CCCCCCCCCNC(=O)C#CI [Example 11, N-(n-Nonyl)-3-iodopropiolamide] | 82.2 | 12.3 | –
